Experiments:
[1] = system: U251 human glioblastoma cells; experiment: MTT cytotoxicity assay, U251 cells; format: cell-based; conditions: for IC50: Homo sapiens, U-251, MTT, 72 h; for anticancer activity against U251 cells: at 100 µM concentration
Experimental: (§1) U251, T98G (Japanese Collection of Research Bioresources Cell Bank), and U87 human glioblastoma cell lines were incubated in Dulbecco’s Modified Eagle Medium (DMEM)/Ham’s F12 (Wako Pure Chemical Industries, Osaka, Japan), Eagle’s Minimum Essential Medium (EMEM; Wako Pure Chemical Industries, Osaka, Japan), and DMEM (Gibco/Thermo Fisher Scientific, Waltham, MA, USA) respectively, and supplemented with 10% fetal bovine serum (FBS; Sigma Aldrich, MO, USA). Jurkat human leukemic T-cell line was cultured in Roswell Park Memorial Institute (RPMI) 1640 (Wako Pure Chemical Industries, Osaka, Japan), supplemented with 10% FBS. PBMCs (Precision Bioservices, Frederick, MD, USA) were incubated in RPMI 1640 and supplemented with 10% human serum AB (HS) (Gemini, Woodland, CA, USA). All media were supplemented with 89 μg/mL streptomycin (Meiji Seika Pharma, Tokyo, Japan) at 37 °C in a humid atmosphere and 5% CO2. For each experiment, growing cells were plated at 4 × 10^4 cells/mL and 6 × 10^5 cells/mL into 24-well and 96-well microtiter tissue culture plates (Iwaki brand Asahi Glass Co., Chiba, Japan) respectively and incubated for 72 h before the addition of the drugs (the optimal cell number for cytotoxicity assays was determined in preliminary experiments). The stock solutions of the compounds and cisplatin (Sigma-Aldrich, St. Louis, MO, USA) in concentrations between 0.1–10 mM were prepared in dimethyl sulfoxide (DMSO; Wako Pure Chemical Industries, Osaka, Japan) and in H2O respectively, then were added to fresh culture medium. The concentration of DMSO and H2O in the final culture medium was 1% which had no effect on the cell viability.
(§2) The MTT (Dojindo Molecular Technologies, Kumamoto, Japan) assay was carried out using the U251, T98G, U87, Jurkat, and PBMC cells to determine the cytotoxicity of compounds 1–13 and cisplatin as previously described in the literature with small modifications. Treated cells were incubated with different concentrations (1–100 µM) of the compounds for 72 h at 37 °C in the CO2 incubator. About 100 µL (1.1 mg/mL) of MTT solution was added to each well and after further incubation for 4 h, formazan crystals formed. At the end of this period, the medium was removed and the formazan crystals were solubilized by the addition of 100 μL DMSO to each well. The absorbance was read on an Infinite M1000 plate reader (Tecan, Mannedorf, Switzerland) at a wavelength of 550 nm with background subtraction at 630 nm. All experiments were performed in triplicate and IC50 values were defined as the drug concentrations that reduced absorbance to 50% of control values.

[2] = system: U87 human glioblastoma cells; experiment: MTT cytotoxicity assay, U87 cells; format: cell-based; conditions: for IC50: Homo sapiens, U-87 MG, MTT, 72 h; for anticancer activity against U87 cells: at 100 µM concentration
Experimental: as §1, §2

[3] = system: T98G human glioblastoma cells; experiment: MTT cytotoxicity assay, T98G cells; format: cell-based; conditions: for IC50: Homo sapiens, T98G, MTT, 72 h; for anticancer activity against T98G cells: at 100 µM concentration
Experimental: as §1, §2

[4] = system: Jurkat human leukemic T-cells; experiment: MTT cytotoxicity assay, Jurkat cells; format: cell-based; conditions: for IC50: Homo sapiens, Jurkat, MTT, 72 h; for SI (selectivity index): SI = IC50 for PBMCs/IC50 for Jurkat cells
Experimental: as §1, §2

[5] = system: human peripheral blood mononuclear cells (PBMCs); experiment: MTT cytotoxicity assay, PBMCs; format: cell-based; conditions: Homo sapiens, PBMC, 72 h
Experimental: as §1, §2

melting point | SMILES | IC50 [1] | IC50 [2] | IC50 [3] | anticancer activity against U251 cells [1] | anticancer activity against U87 cells [2] | anticancer activity against T98G cells [3] | IC50 [4] | SI (selectivity index) [4] | IC50 [5]
– | C[C@H]1[C@H](C)CC[C@]2(C(=O)OCc3ccccc3)CC[C@]3(C)C(=CC[C@@H]4[C@@]5(C)C[C@@H](O)[C@H](O)[C@@](C)(CO)[C@@H]5CC[C@]43C)[C@H]12 [Compound 1] | 13.2 ± 3.19 µM | 22.6 ± 6.75 µM | 20.5 ± 4.34 µM | – | – | – | – | – | –
– | C=C(C)[C@@H]1CC[C@]2(C(=O)OCc3ccccc3)CC[C@]3(C)[C@H](CC[C@@H]4[C@@]5(C)CC[C@H](O)C(C)(C)[C@@H]5CC[C@]43C)[C@@H]12 [Compound 2] | 24 ± 4.98 µM | > 100 µM | > 100 µM | – | – | – | – | – | –
– | CC1(C)[C@@H](O)CC[C@]2(C)[C@H]3C(=O)C=C4[C@@H]5C[C@@](C)(C(=O)OCc6ccccc6)CC[C@]5(C)CC[C@@]4(C)[C@]3(C)CC[C@@H]12 [Compound 3] | > 100 µM | > 100 µM | > 100 µM | no significant anticancer activity | no significant anticancer activity | no significant anticancer activity | – | – | –
– | CC1(C)CC[C@]2(C(=O)OCc3ccccc3)CC[C@]3(C)C(=CC[C@@H]4[C@@]5(C)CC[C@H](O)[C@@](C)(CO)[C@@H]5CC[C@]43C)[C@@H]2C1 [Compound 4] | 8.06 ± 2.04 µM | 19.5 ± 4.52 µM | 9.86 ± 2.21 µM | – | – | – | 9.97 ± 3.24 µM | 2.20 | 21.9 ± 5.13 µM
– | C[C@H]1[C@H](C)CC[C@]2(C(=O)OCc3ccccc3)CC[C@]3(C)C(=CC[C@@H]4[C@@]5(C)CC[C@H](O)C(C)(C)[C@@H]5CC[C@]43C)[C@H]12 [Compound 6] | 16.7 ± 3.17 µM | 79.7 ± 10.1 µM | 64.1 ± 7.36 µM | – | – | – | – | – | –
– | CC1(C)CC[C@]2(C(=O)OCc3ccccc3)CC[C@]3(C)C(=CC[C@@H]4[C@@]5(C)CC[C@H](O)[C@@](C)(C=O)[C@@H]5CC[C@]43C)[C@@H]2C1 [Compound 7] | 18 ± 2.23 µM | 60.9 ± 8.87 µM | 61.1 ± 5.13 µM | – | – | – | – | – | –
246 to 249 °C | CC1(C)CCC2(C(=O)O)CCC3(C)C(=CCC4C5(C)CCC(O)C(C)(CNCc6ccccc6)C5CCC43C)C2C1 (stereo not drawn) [Compound 11, 9-((Benzylamino)methyl)-10-hydroxy-2,2,6a,6b,9,12a-hexamethyl-1,2,3,4,4a,5,6,6a,6b,7,8,8a,9,10,11,12,12a,12b,13,14b-icosahydropicene-4a-carboxylic acid] | > 100 µM | > 100 µM | > 100 µM | no significant anticancer activity | no significant anticancer activity | no significant anticancer activity | – | – | –
240 to 243 °C | C[C@H](NCC1(C)C(O)CCC2(C)C1CCC1(C)C2CC=C2C3CC(C)(C)CCC3(C(=O)O)CCC21C)c1ccccc1 (stereo partly drawn) [Compound 12, 10-Hydroxy-2,2,6a,6b,9,12a-hexamethyl-9-[(((S)-1-phenylethyl)amino)methyl]-1,2,3,4,4a,5,6,6a,6b,7,8,8a,9,10,11,12,12a,12b,13,14b-icosahydropicene-4a-carboxylic acid] | > 100 µM | > 100 µM | > 100 µM | no significant anticancer activity | no significant anticancer activity | no significant anticancer activity | – | – | –
265 to 267 °C | CC(=O)Nc1cccc(NCC2(C)C(O)CCC3(C)C2CCC2(C)C3CC=C3C4CC(C)(C)CCC4(C(=O)O)CCC32C)c1 (stereo not drawn) [Compound 13, 9-[((3-Acetamidophenyl)amino)methyl]-10-hydroxy-2,2,6a,6b,9,12a-hexamethyl-1,2,3,4,4a,5,6,6a,6b,7,8,8a,9,10,11,12,12a,12b,13,14b-icosahydropicene-4a-carboxylic acid] | 9.95 ± 2.04 µM | 21.7 ± 6.09 µM | 20.2 ± 5.47 µM | – | – | – | 12.1 ± 1.64 µM | 3.57 | 43.1 ± 8.32 µM

— paper PMC8537327, “EGFR-Targeted Pentacyclic Triterpene Analogues for Glioma Therapy” (International Journal of Molecular Sciences, 2021)
